Like-named read-outs stand apart in the source and are kept apart here.
Assays:
[1] = test system: callous of three week-old fractures of tibia; assay: Localization in callous of three week-old tibial fractures (rabbits), compared with strontium-85; assay type: in vivo, albino rabbits
Protocol: Adult New Zealand albino rabbits having an average weight of 3.8 kg were utilized. Strontium-85 was employed as a standard for comparison. In a typical experiment 20-250 μCi (i.e., containing approximately 1 mg/kg as the free acid of body weight) of 99mTc EHDP were injected intravenously into the rabbits through the marginal ear vein and compared with 10-20 μ Ci 85 Sr chloride administered simutaneously. Each dosage is contained in a volume of 1 ml.
The animals were sacrificed serially from 1 to 24 hours after injection and the activities in major organs were determined by counting multiple samples from each organ in a scintillation well counter (the technetium-99m counts were corrected for the Compton contributions from the strontium-85 activity in the technetium-99m energy window). Multiple samples were counted from the tibia, femur, spine and pelvic bones; the total activity in the skeleton was estimated by assuming the whole skeleton consisted of equal proportions by weight of tibia, spine, femur and pelvis and that the skeletal mass was 10% of the body weight. The red marrow was sampled from the femur and the total marrow was assumed to be 2.2% of the total body weight. Similarly, blood volume was assumed to be 7% and the skeletal muscle 43% of the body weight. The whole liver and both kidneys were weighed and multiple samples from each were counted to measure the total activity in each organ.
In another series of experiments carried out as described above, localization of technetium from its tin-phosphonate complex was determined in the callous of three week-old fractures of tibia in albino rabbits, again in comparison with strontium-85. Comparative radioassay of technetium-99m administered as the pertechnetate was measured in the callous of tibial fractures in rabbits at one and four hours after administration.

[2] = radioactive decay; cited from earlier work
[3] = 2 Hrs
[4] = Simultaneous distribution of 99mTc-EHDP and 85Sr in rabbits at 1-24 hours after intravenous injection; assay type: in vivo, adult New Zealand albino rabbits; settings: for Blood, % Dose in Whole Organ: blood as 7 % of body weight; for Bone(Avg), % dose in whole organ: bone as 10 % of body weight; for Marrow, % Dose in Whole Organ: marrow as 2.2 % of body weight; for Muscle, % Dose in Whole Organ: muscle as 43 % of body weight
Protocol: Adult New Zealand albino rabbits having an average weight of 3.8 kg were utilized. Strontium-85 was employed as a standard for comparison. […] Each dosage is contained in a volume of 1 ml.
Multiple samples were counted from the tibia, femur, spine and pelvic bones; the total activity in the skeleton was estimated by assuming the whole skeleton consisted of equal proportions by weight of tibia, spine, femur and pelvis and that the skeletal mass was 10% of the body weight. […] The whole liver and both kidneys were weighed and multiple samples from each were counted to measure the total activity in each organ.

SMILES: [85Sr+2].[Cl-].[Cl-] [85Sr, reference compound]
- Callus, % dose / 1 % body weight ([1]; 1 Hr): 31.2 % dose / 1 % body weight
- Callus, % dose / 1 % body weight ([1]; 4 Hrs): 37.7 % dose / 1 % body weight
- half-life of radionuclide [2]: 65 days
- Blood, % Dose in Whole Organ ([3]; AEDP 0.01 mg/kg): 2.99 % Dose
- Kidneys, % Dose in Whole Organ ([3]; AEDP 0.01 mg/kg): 0.329 % Dose
- Liver, % Dose in Whole Organ ([3]; AEDP 0.01 mg/kg): 0.568 % Dose
- Marrow, % Dose in Whole Organ ([3]; AEDP 0.01 mg/kg): 0.465 % Dose
- Urine, % Dose ([3]; AEDP 0.01 mg/kg): 20.97 % Dose
- Blood, % Dose in Whole Organ ([3]; AEDP 0.05 mg/kg): 2.50 % Dose
- Kidneys, % Dose in Whole Organ ([3]; AEDP 0.05 mg/kg): 0.353 % Dose
- Liver, % Dose in Whole Organ ([3]; AEDP 0.05 mg/kg): 0.613 % Dose
- Marrow, % Dose in Whole Organ ([3]; AEDP 0.05 mg/kg): 0.486 % Dose
- Urine, % Dose ([3]; AEDP 0.05 mg/kg): 11.95 % Dose
- Blood, % Dose in Whole Organ ([3]; AEDP 0.1 mg/kg): 2.48 % Dose
- Kidneys, % Dose in Whole Organ ([3]; AEDP 0.1 mg/kg): 0.324 % Dose
- Liver, % Dose in Whole Organ ([3]; AEDP 0.1 mg/kg): 0.654 % Dose
- Marrow, % Dose in Whole Organ ([3]; AEDP 0.1 mg/kg): 0.244 % Dose
- Urine, % Dose ([3]; AEDP 0.1 mg/kg): 12.1 % Dose
- Blood, % Dose in Whole Organ ([3]; AEDP 0.5 mg/kg): 4.36 % Dose
- Kidneys, % Dose in Whole Organ ([3]; AEDP 0.5 mg/kg): 0.384 % Dose
- Liver, % Dose in Whole Organ ([3]; AEDP 0.5 mg/kg): 0.720 % Dose
- Urine, % Dose ([3]; AEDP 0.5 mg/kg): 10.47 % Dose
- Urine, % Dose ([3]; EHDP 0.01 mg/kg): 23.66 % Dose
- Urine, % Dose ([3]; EHDP 0.05 mg/kg): 13.4 % Dose
- Urine, % Dose ([3]; EHDP 0.1 mg/kg): 11.31 % Dose
- Urine, % Dose ([3]; EHDP 0.5 mg/kg): 19.6 % Dose
- Blood, % Dose in Whole Organ ([3]; MDP 0.01 mg/kg): 3.27 % Dose
- Kidneys, % Dose in Whole Organ ([3]; MDP 0.01 mg/kg): 0.34 % Dose
- Liver, % Dose in Whole Organ ([3]; MDP 0.01 mg/kg): 0.65 % Dose
- Marrow, % Dose in Whole Organ ([3]; MDP 0.01 mg/kg): 0.53 % Dose
- Muscle, % Dose in Whole Organ ([3]; MDP 0.01 mg/kg): 5.69 % Dose
- One Femur, % Dose in Whole Organ ([3]; MDP 0.01 mg/kg): 3.46 % Dose
- Urine, % Dose ([3]; MDP 0.01 mg/kg): 10.3 % Dose
- Blood, % Dose in Whole Organ ([3]; MDP 0.05 mg/kg): 3.66 % Dose
- Kidneys, % Dose in Whole Organ ([3]; MDP 0.05 mg/kg): 0.46 % Dose
- Liver, % Dose in Whole Organ ([3]; MDP 0.05 mg/kg): 0.71 % Dose
- Marrow, % Dose in Whole Organ ([3]; MDP 0.05 mg/kg): 0.53 % Dose
- Muscle, % Dose in Whole Organ ([3]; MDP 0.05 mg/kg): 5.89 % Dose
- One Femur, % Dose in Whole Organ ([3]; MDP 0.05 mg/kg): 2.53 % Dose
- Urine, % Dose ([3]; MDP 0.05 mg/kg): 23.16 % Dose
- Blood, % Dose in Whole Organ ([3]; MDP 0.1 mg/kg): 3.95 % Dose
- Kidneys, % Dose in Whole Organ ([3]; MDP 0.1 mg/kg): 0.66 % Dose
- Liver, % Dose in Whole Organ ([3]; MDP 0.1 mg/kg): 1.05 % Dose
- Marrow, % Dose in Whole Organ ([3]; MDP 0.1 mg/kg): 0.57 % Dose
- Muscle, % Dose in Whole Organ ([3]; MDP 0.1 mg/kg): 9.32 % Dose
- One Femur, % Dose in Whole Organ ([3]; MDP 0.1 mg/kg): 2.80 % Dose
- Urine, % Dose ([3]; MDP 0.1 mg/kg): 15.4 % Dose
- Blood, % Dose in Whole Organ ([3]; MDP 0.5 mg/kg): 3.11 % Dose
- Kidneys, % Dose in Whole Organ ([3]; MDP 0.5 mg/kg): 0.45 % Dose
- Liver, % Dose in Whole Organ ([3]; MDP 0.5 mg/kg): 0.69 % Dose
- Marrow, % Dose in Whole Organ ([3]; MDP 0.5 mg/kg): 0.67 % Dose
- Muscle, % Dose in Whole Organ ([3]; MDP 0.5 mg/kg): 5.65 % Dose
- One Femur, % Dose in Whole Organ ([3]; MDP 0.5 mg/kg): 2.96 % Dose
- Urine, % Dose ([3]; MDP 0.5 mg/kg): 15.16 % Dose
- Bone(Avg), % dose / 1 % body weight ([4]; 1 Hr): 5.60 % dose / 1 % body weight
- Femur, % dose / 1 % body weight ([4]; 1 Hr): 4.90 % dose / 1 % body weight
- Kidneys, % Dose in Whole Organ ([4]; 1 Hr): 0.80 % dose
- Pelvis, % dose / 1 % body weight ([4]; 1 Hr): 7.07 % dose / 1 % body weight
- Spine, % dose / 1 % body weight ([4]; 1 Hr): 7.03 % dose / 1 % body weight
- Tibia, % dose / 1 % body weight ([4]; 1 Hr): 3.62 % dose / 1 % body weight
- Urine, % Dose ([4]; 1 Hr): 6.96 % dose
- Blood, % Dose in Whole Organ ([4]; 1 Hr): 11.9 % dose
- Bone(Avg), % dose in whole organ ([4]; 1 Hr): 56.0 % dose
- Marrow, % Dose in Whole Organ ([4]; 1 Hr): 0.91 % dose
- Muscle, % Dose in Whole Organ ([4]; 1 Hr): 13.4 % dose
- Bone(Avg), % dose / 1 % body weight ([4]; 2 Hrs): 6.44 % dose / 1 % body weight
- Femur, % dose / 1 % body weight ([4]; 2 Hrs): 5.74 % dose / 1 % body weight
- Kidneys, % Dose in Whole Organ ([4]; 2 Hrs): 0.64 % dose
- Pelvis, % dose / 1 % body weight ([4]; 2 Hrs): 7.70 % dose / 1 % body weight
- Spine, % dose / 1 % body weight ([4]; 2 Hrs): 7.59 % dose / 1 % body weight
- Tibia, % dose / 1 % body weight ([4]; 2 Hrs): 4.73 % dose / 1 % body weight
- Urine, % Dose ([4]; 2 Hrs): 18.0 % dose
- Blood, % Dose in Whole Organ ([4]; 2 Hrs): 7.08 % dose
- Bone(Avg), % dose in whole organ ([4]; 2 Hrs): 49.4 % dose
- Marrow, % Dose in Whole Organ ([4]; 2 Hrs): 0.76 % dose
- Muscle, % Dose in Whole Organ ([4]; 2 Hrs): 8.8 % dose
- Bone(Avg), % dose / 1 % body weight ([4]; 4 Hrs): 6.81 % dose / 1 % body weight
- Femur, % dose / 1 % body weight ([4]; 4 Hrs): 6.17 % dose / 1 % body weight
- Kidneys, % Dose in Whole Organ ([4]; 4 Hrs): 0.34 % dose
- Pelvis, % dose / 1 % body weight ([4]; 4 Hrs): 8.02 % dose / 1 % body weight
- Spine, % dose / 1 % body weight ([4]; 4 Hrs): 7.82 % dose / 1 % body weight
- Tibia, % dose / 1 % body weight ([4]; 4 Hrs): 5.13 % dose / 1 % body weight
- Urine, % Dose ([4]; 4 Hrs): 22.7 % dose
- Blood, % Dose in Whole Organ ([4]; 4 Hrs): 3.85 % dose
- Bone(Avg), % dose in whole organ ([4]; 4 Hrs): 68.1 % dose
- Marrow, % Dose in Whole Organ ([4]; 4 Hrs): 0.50 % dose
- Muscle, % Dose in Whole Organ ([4]; 4 Hrs): 6.46 % dose
- Bone(Avg), % dose / 1 % body weight ([4]; 24 Hrs): 5.21 % dose / 1 % body weight
- Femur, % dose / 1 % body weight ([4]; 24 Hrs): 4.83 % dose / 1 % body weight
- Kidneys, % Dose in Whole Organ ([4]; 24 Hrs): 0.03 % dose
- Marrow, % dose / 1 % body weight ([4]; 24 Hrs): 0.05 % dose / 1 % body weight
- Pelvis, % dose / 1 % body weight ([4]; 24 Hrs): 5.26 % dose / 1 % body weight
- Spine, % dose / 1 % body weight ([4]; 24 Hrs): 6.47 % dose / 1 % body weight
- Tibia, % dose / 1 % body weight ([4]; 24 Hrs): 4.27 % dose / 1 % body weight
- Blood, % Dose in Whole Organ ([4]; 24 Hrs): 0.29 % dose
- Bone(Avg), % dose in whole organ ([4]; 24 Hrs): 51.9 % dose
- Marrow, % Dose in Whole Organ ([4]; 24 Hrs): 0.10 % dose
- Muscle, % Dose in Whole Organ ([4]; 24 Hrs): 1.00 % dose

Source: patent US3989730A, “Bone-seeking technetium-99m complex” (priority 1973, dated 1976)
